Each compound was assayed against T1, p53 Y220C (Homo sapiens, UniProt P04637, Y220C) (assay: In vitro DNA binding activity assay (HTRF / TR-FRET): stabilization of p53 Y220C and increase of its DNA binding activity). Conditions: recombinant His-tagged p53 Y220C DNA binding domain (aa 94-312), biotin-labeled consensus DNA, incubated at 27° C. or 29° C. for 60 min.
T1 construct: The recombinant protein was a truncation mutant containing only amino acids 94-312 of p53; made in house; host or cells: E. coli
Type: biochemical
Summary of the method: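 His-tagged p53 Y220C, E. coli-expressed, binding biotin-labeled consensus DNA measured by HTRF (anti-His-APC, streptavidin-europium). Compounds from 4.5 mM DMSO stocks, 3-fold serial dilutions; incubations at room temperature 15 min, then 20 min. SC150 = concentration raising DNA binding by 50%.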

T1 sequence (P04637 94-312, change not shown): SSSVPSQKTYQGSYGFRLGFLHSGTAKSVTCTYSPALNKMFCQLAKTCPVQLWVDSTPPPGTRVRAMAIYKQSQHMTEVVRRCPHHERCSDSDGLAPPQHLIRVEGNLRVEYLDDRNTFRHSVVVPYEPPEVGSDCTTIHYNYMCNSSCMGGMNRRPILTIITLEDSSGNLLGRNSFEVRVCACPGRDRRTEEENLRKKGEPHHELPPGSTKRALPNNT

SMILES	SC150 (concentration of the compound required to increase the DNA binding activity by 50%)
COc1cc(S(C)(=O)=O)ccc1NCC#Cc1cc2c(NC3CCN(CCC#N)CC3)cccc2n1CC(F)(F)F [Compound 686A]	+ (+ = 0 μM ≤ SC150 < 0.05 μM)
COCCNC(=O)c1ccc(NCC#Cc2cc3c(N[C@H]4CCN(C)C[C@H]4F)cccc3n2CC(F)(F)F)c(OC)c1 (racemic) [Compound 814A, rac-4-{[3-(4-{[(3R,4S)-3-fluoro-1-methylpiperidin-4-yl]amino}-1-(2,2,2-trifluoroethyl)-1H-indol-2-yl)prop-2-yn-1-yl]amino}-3-methoxy-N-(2-methoxyethyl)benzamide]	+ (+ = 0 μM ≤ SC150 < 0.05 μM)
CNC(=O)c1ccc(NCC#Cc2cc3c(NC4CCN(CC(O)COC)CC4)cccc3n2CC(F)(F)F)c(OC)c1 (stereo not drawn) [Compound 601A, 4-{[3-(4-{[1-(2-hydroxy-3-methoxypropyl)piperidin-4-yl]amino}-1-(2,2,2-trifluoroethyl)-1H-indol-2-yl)prop-2-yn-1-yl]amino}-3-methoxy-N-methylbenzamide]	+ (+ = 0 μM ≤ SC150 < 0.05 μM)
CCC(=O)OCC(CN1CCC(Nc2cccc3c2cc(C#CCNc2ccc(S(N)(=O)=O)cc2OC)n3CC(F)(F)F)CC1)OC(=O)CC (stereo not drawn) [Compound 587A, 1-{4-[(2-{3-[(2-methoxy-4-sulfamoylphenyl)amino]prop-1-yn-1-yl}-1-(2,2,2-trifluoroethyl)-1H-indol-4-yl)amino]piperidin-1-yl}-3-(propanoyloxy)propan-2-yl propanoate]	+ (+ = 0 μM ≤ SC150 < 0.05 μM)
CNC(=O)c1ccc(NCC#Cc2cc3c(N[C@H]4CC[C@H](N(C)C)CC4)cccc3n2CC(F)(F)F)c(OC)c1 [Compound 74A, 3-methoxy-N-methyl-4-{[3-(4-{[(1R,4R)-4-(dimethylamino)cyclohexyl]amino}-1-(2,2,2-trifluoroethyl)-1H-indol-2-yl)prop-2-yn-1-yl]amino}benzamide]	+ (+ = 0 μM ≤ SC150 < 0.05 μM)
COC(=O)COc1cc(S(C)(=O)=O)ccc1NCC#Cc1cc2c(N[C@H]3CC[C@H](N4CC5(CCOCC5)C4)CC3)cccc2n1CC(F)(F)F [Compound 309A, methyl 2-(2-((3-(4-((4-(7-oxa-2-azaspiro[3.5]nonan-2-yl)cyclohexyl)amino)-1-(2,2,2-trifluoroethyl)-1H-indol-2-yl)prop-2-yn-1-yl)amino)-5-(methylsulfonyl)phenoxy)acetate]	+ (+ = 0 μM ≤ SC150 < 0.05 μM)
COc1cc(S(C)(=O)=O)ccc1NCC#Cc1cc2c(N[C@H]3CCN(C(C)(C)C)C[C@H]3F)cccc2n1CC(F)(F)F [Compound 1069A, N-[(3R,4S)-1-tert-butyl-3-fluoropiperidin-4-yl]-2-{3-[(4-methanesulfonyl-2-methoxyphenyl)amino]prop-1-yn-1-yl}-1-(2,2,2-trifluoroethyl)-1H-indol-4-amine]	+ (+ = 0 μM ≤ SC150 < 0.05 μM)
COc1cc(S(C)(=O)=O)ccc1NCC#Cc1cc2c(NC3CCN([C@H]4CCOC4)CC3)cccc2n1CC(F)(F)F [Compound 723A, 2-{3-[(4-methanesulfonyl-2-methoxyphenyl)amino]prop-1-yn-1-yl}-N-{1-[(3S)-oxolan-3-yl]piperidin-4-yl}-1-(2,2,2-trifluoroethyl)-1H-indol-4-amine]	+ (+ = 0 μM ≤ SC150 < 0.05 μM)
CCNC(=O)c1ccc(NCC#Cc2cc3c(N[C@@H]4CCN(C)C[C@@H]4F)cccc3n2CC(F)(F)F)c(O)c1 [Compound 1060A, N-ethyl-4-{[3-(4-{[(3S,4R)-3-fluoro-1-methylpiperidin-4-yl]amino}-1-(2,2,2-trifluoroethyl)-1H-indol-2-yl)prop-2-yn-1-yl]amino}-3-hydroxybenzamide]	+ (+ = 0 μM ≤ SC150 < 0.05 μM)
COc1cc(S(N)(=O)=O)ccc1NCC#Cc1cc2c(N[C@H]3CCN(C(C)=O)[C@@H](C)C3)cccc2n1CC(F)(F)F [Compound 740A, 4-{[3-(4-{[(2S, 4S)-1-acetyl-2-methylpiperidin-4-yl]amino}-1-(2,2,2-trifluoroethyl)-1H-indol-2-yl)prop-2-yn-1-yl]amino}-3-methoxybenzene-1-sulfonamide]	+ (+ = 0 μM ≤ SC150 < 0.05 μM)
COc1cc(C(=O)O)ccc1NCC#Cc1cc2c(N[C@H]3CCNC[C@H]3F)cccc2n1CC(F)(F)F [Compound 852A]	+ (+ = 0 μM ≤ SC150 < 0.05 μM)
COc1cc(S(C)(=O)=O)ccc1NCC#Cc1cc2c(NC3CCN(c4nc(C)cs4)CC3)cccc2n1CC(F)(F)F [Compound 719A]	+++ (+++ = 0.1 μM ≤ SC150 < 0.2 μM)
CNC(=O)c1ccc(NCC#Cc2cc3c(N[C@@H]4CCN(C)C[C@@H]4F)cccc3n2CC(F)(F)F)c(O)c1 [Compound 1058A, 4-{[3-(4-{[(3S,4R)-3-fluoro-1-methylpiperidin-4-yl]amino}-1-(2,2,2-trifluoroethyl)-1H-indol-2-yl)prop-2-yn-1-yl]amino}-3-hydroxy-N-methylbenzamide]	+ (+ = 0 μM ≤ SC150 < 0.05 μM)
CNC(=O)c1ccc(NCC#Cc2cc3c(N[C@H]4CC[C@](C)(O)CC4)cccc3n2CC(F)(F)F)c(OC)c1 [Compound 31A, 3-methoxy-N-methyl-4-{[3-(4-{[(1R,4R)-4-hydroxy-4-methylcyclohexyl]amino}-1-(2,2,2-trifluoroethyl)-1H-indol-2-yl)prop-2-yn-1-yl]amino}benzamide]	+ (+ = 0 μM ≤ SC150 < 0.05 μM)
COCC(=O)N1CCC(Nc2cccc3c2cc(C#CCNc2ccc(S(C)(=O)=O)cc2OC)n3CC(F)(F)F)CC1 [Compound 741A, 1-{4-[(2-{3-[(4-methanesulfonyl-2-methoxyphenyl)amino]prop-1-yn-1-yl}-1-(2,2,2-trifluoroethyl)-1H-indol-4-yl)amino]piperidin-1-yl}-2-methoxyethan-1-one]	+ (+ = 0 μM ≤ SC150 < 0.05 μM)
COc1cc(S(=O)(=O)NC(=O)CN)ccc1NCC#Cc1cc2c(N[C@H]3CC[C@H](N4CC5(CCOCC5)C4)CC3)cccc2n1CC(F)(F)F [Compound 307A, N-((4-((3-(4-(((1R,4R)-4-(7-oxa-2-azaspiro[3.5]nonan-2-yl)cyclohexyl)amino)-1-(2,2,2-trifluoroethyl)-1H-indol-2-yl)prop-2-yn-1-yl)amino)-3-methoxyphenyl)sulfonyl)-2-aminoacetamide]	+ (+ = 0 μM ≤ SC150 < 0.05 μM)
COCCNc1cccc2c1cc(C#CCNc1ccc(S(N)(=O)=O)cc1OC)n2CC(F)(F)F [Compound 2A, 3-methoxy-4-[(3-{4-[(2-methoxyethyl)amino]-1-(2,2,2-trifluoroethyl)-1H-indol-2-yl}prop-2-yn-1-yl)amino]benzene-1-sulfonamide]	++ (++ = 0.05 μM ≤ SC150 < 0.1 μM)
COc1cc(S(=O)(=O)N2CCN(C)CC2)ccc1NCC#Cc1cc2c(NC3CCOCC3)cccc2n1CC(F)(F)F [Compound 1011A, 2-[3-({2-methoxy-4-[(4-methylpiperazin-1-yl)sulfonyl]phenyl}amino)prop-1-yn-1-yl]-N-(oxan-4-yl)-1-(2,2,2-trifluoroethyl)-1H-indol-4-amine]	+ (+ = 0 μM ≤ SC150 < 0.05 μM)
CN(C)[C@H]1CC[C@@H](Nc2cccc3c2cc(C#CCNc2ccc(S(C)(=O)=O)cc2C(F)(F)F)n3CC(F)(F)F)CC1 [Compound 138A, (1S,4S)-N^4-[2-(3-{[4-methanesulfonyl-2-(trifluoromethyl)phenyl]amino}prop-1-yn-1-yl)-1-(2,2,2-trifluoroethyl)-1H-indol-4-yl]-N^1,N^1-dimethylcyclohexane-1,4-diamine]	+++ (+++ = 0.1 μM ≤ SC150 < 0.2 μM)
CNc1cc(S(C)(=O)=O)ccc1OCC#Cc1cc2c(N[C@H]3CC[C@@H](N(C)C)CC3)cccc2n1CC(F)(F)F [Compound 108A, (1S,4S)-N^4-(2-{3-[4-methanesulfonyl-2-(methylamino)phenoxy]prop-1-yn-1-yl}-1-(2,2,2-trifluoroethyl)-1H-indol-4-yl)-N^1,N^1-dimethylcyclohexane-1,4-diamine]	++ (++ = 0.05 μM ≤ SC150 < 0.1 μM)
COc1cc(S(=O)(=O)N(C)C)ccc1NCC#Cc1cc2c(NC3CCS(=O)(=O)CC3)cccc2n1CC(F)(F)F [Compound 1044A, 4-[(3-{4-[(1,1-dioxo-1λ^6-thian-4-yl)amino]-1-(2,2,2-trifluoroethyl)-1H-indol-2-yl}prop-2-yn-1-yl)amino]-3-methoxy-N,N-dimethylbenzene-1-sulfonamide]	+ (+ = 0 μM ≤ SC150 < 0.05 μM)
CCOC(=O)c1ccc(NCC#Cc2cc3c(N[C@H]4CCN(CC)C[C@H]4F)cccc3n2CC(F)(F)F)c(OC)c1 [Compound 824A]	+ (+ = 0 μM ≤ SC150 < 0.05 μM)
COc1cc(S(C)(=O)=O)ccc1NCC#Cc1cc2c(N[C@H]3CCOC[C@H]3F)cccc2n1CC(F)(F)F [Compound 1025A, N-[(3S,4S)-3-fluorooxan-4-yl]-2-{3-[(4-methanesulfonyl-2-methoxyphenyl)amino]prop-1-yn-1-yl}-1-(2,2,2-trifluoroethyl)-1H-indol-4-amine]	+ (+ = 0 μM ≤ SC150 < 0.05 μM)
CNC(=O)c1ccc(NCC#Cc2cc3c(NC4CCN(CC(O)CO)CC4)cccc3n2CC(F)(F)F)c(OC)c1 (stereo not drawn) [Compound 658A, 4-{[3-(4-{[1-(2,3-dihydroxypropyl)piperidin-4-yl]amino}-1-(2,2,2-trifluoroethyl)-1H-indol-2-yl)prop-2-yn-1-yl]amino}-3-methoxy-N-methylbenzamide]	+ (+ = 0 μM ≤ SC150 < 0.05 μM)

— patent US12428406B2 (PMV Pharmaceuticals, Inc., priority 2019, dated 2025)
